Source: patent publication US9233983B2, “Substituted hetero-bicyclic compounds, compositions and medicinal applications thereof” (ADVINUS THERAPEUTICS LIMITED, priority 2012, dated 2016)
Like-named read-outs stand apart in the source and are kept apart here.

Columns and labels:
[1] = target: human Bruton's Tyrosine Kinase (Btk) (Homo sapiens (Human), UniProt Q06187); test: Recombinant Human Bruton's Tyrosine Kinase (Btk) Inhibition Assay (HTRF KinEASE-TK); type: biochemical; conditions: read-out: hBTK IC50
mouse splenocytes = test: Inhibition of B Cell Activation as Measured by CD69 Expression in Mouse Splenocytes; type: cell-based; conditions: Splenocyte
Experimental: Inhibition of B Cell Activation as Measured by CD69 Expression in Mouse Splenocytes:
To test the effect of BTK inhibitors in suppressing B-cell receptor (BCR) mediated activation of B cells, we developed a flow cytometry based assay to analyze CD69 expression in B cell population among total splenocyte from the mouse. […] Finally, cell were cultured in RPMI medium with 10% FBS.
Test compounds were diluted half log starting from 2 mM in 100% DMSO (200×). 1×10^5 splenocytes were incubated with 1 uL of diluted test compounds in 200 uL culture medium in a U-bottom 96 well plate (Greiner) at 37° C. with 5% CO2 for 30 mins. Control wells received 1 uL of 100% DMSO without any compound. The cells were stimulated with 3 ug/mL goat anti-mouse IgM (Sigma, cat#M8644) and incubated for 18-20 hrs. […] Then the cells were washed 3 times with PBS with 1% FBS and analyzed by Guava Easycyte Mini flow cytometer system (Millipore). Flow cytometry data were analyzed using Weasel software (WEHI, Melbourne). First B cells were gated using CD19 markers. Then expression of CD69 was analyzed as percentage of CD69+ve cells within CD19. Percent activity for each data point was calculated using following formula: […]
Percentage activity was fit using sigmoid dose response with variable slope logistic equation in Graph-pad Prism 5 software to determine inhibition constant 50 (IC50).

[2] = 20 ng/ml rhBtk, 77 μM ATP (KM), 1 μM TK-Biotin substrate, 90 min
[3] = C57/BL6 splenocytes, 3 ug/mL goat anti-mouse IgM, 18-20 hrs, CD69+ve cells within CD19, read-out: Mouse spleenocyte IC50

Chain of human Bruton's Tyrosine Kinase (Btk) (Q06187 whole entry): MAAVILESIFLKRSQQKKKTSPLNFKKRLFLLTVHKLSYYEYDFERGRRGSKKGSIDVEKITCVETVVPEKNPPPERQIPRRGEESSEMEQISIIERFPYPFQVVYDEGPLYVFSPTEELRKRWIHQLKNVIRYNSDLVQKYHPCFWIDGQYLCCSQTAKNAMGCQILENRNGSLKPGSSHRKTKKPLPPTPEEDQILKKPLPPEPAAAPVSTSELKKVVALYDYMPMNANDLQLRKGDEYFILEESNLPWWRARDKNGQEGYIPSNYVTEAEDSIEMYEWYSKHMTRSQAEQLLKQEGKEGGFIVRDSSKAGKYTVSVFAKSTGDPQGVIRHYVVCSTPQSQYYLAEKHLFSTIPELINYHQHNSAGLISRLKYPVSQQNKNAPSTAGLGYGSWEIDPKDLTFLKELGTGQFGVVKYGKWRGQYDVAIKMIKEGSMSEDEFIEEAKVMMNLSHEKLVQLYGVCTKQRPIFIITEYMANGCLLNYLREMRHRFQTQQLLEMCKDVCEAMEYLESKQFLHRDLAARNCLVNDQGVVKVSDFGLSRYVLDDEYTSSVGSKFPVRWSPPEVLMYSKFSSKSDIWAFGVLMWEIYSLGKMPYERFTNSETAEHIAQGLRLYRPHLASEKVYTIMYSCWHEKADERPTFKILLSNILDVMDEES

Row | SMILES | IC50 [1, 2] | IC50 (mouse splenocytes; [3]) | IC50 [1] | IC50 (mouse splenocytes; Mus musculus, read-out: Mouse spleenocyte IC50 (nM))
1 | Cc1c(-c2ncnc3[nH]c(-c4ccc(CN5CCNCC5)cc4)cc23)cccc1N1CCOc2cc(C3CC3)ccc2C1=O [Example A-1, 8-cyclopropyl-4-[2-methyl-3-[6-[4-(piperazin-1-ylmethyl)phenyl]-7H-pyrrolo[2,3-d]pyrimidin-4-yl]phenyl]-2,3-dihydro-1,4-benzoxazepin-5-one] | 7 nM | 99 nM | – | –
2 | Cc1c(-c2ncnc3[nH]c(-c4ccc(CN5CCNCC5)cc4)cc23)cccc1N1CCc2cc(C3CC3)ccc2C1=O [Example A-2, 6-cyclopropyl-2-[2-methyl-3-[6-[4-(piperazin-1-ylmethyl)phenyl]-7H-pyrrolo[2,3-d]pyrimidin-4-yl]phenyl]-3,4-dihydroisoquinolin-1-one] | 7 nM | 165 nM | – | –
3 | CN1CCN(Cc2ccc(-c3cc4c(-c5cccc(N6CCOc7cc(C8CC8)ccc7C6=O)c5CO)ncnc4[nH]3)cc2)CC1 [Example B-1, 8-cyclopropyl-4-[2-(hydroxymethyl)-3-[6-[4-[(4-methylpiperazin-1-yl)methyl]phenyl]-7H-pyrrolo[2,3-d]pyrimidin-4-yl]phenyl]-2,3-dihydro-1,4-benzoxazepin-5-one] | 6 nM | 40 nM | – | –
4 | Cc1c(-c2ncnc3[nH]c(-c4ccc(CN5CCN(C)CC5)cc4)cc23)cccc1N1CCOc2cc(C3CC3)ccc2C1=O [Example B-2] | 31 nM | 200 nM | – | –
5 | O=C1c2ccc(C3CC3)cc2OCCN1c1cccc(-c2ncnc3[nH]c(-c4ccc(CN5CCOCC5)cc4)cc23)c1CO [Example B-5, 8-cyclopropyl-4-[2-(hydroxymethyl)-3-[6-[4-(morpholinomethyl)phenyl]-7H-pyrrolo[2,3-d]pyrimidin-4-yl]phenyl]-2,3-dihydro-l,4-benzoxazepin-5-one] | 8 nM | 60 nM | – | –
6 | CC1(O)CCN(Cc2ccc(-c3cc4c(-c5cccc(N6CCOc7cc(C8CC8)ccc7C6=O)c5CO)ncnc4[nH]3)cc2)CC1 [Example B-6, 8-cyclopropyl-4-[2-(hydroxymethyl)-3-[6-[4-[(4-hydroxy-4-methyl-1-piperidyl)methyl]phenyl]-7H-pyrrolo[2,3-d]pyrimidin-4-yl]phenyl]-2,3-dihydro-1,4-benzoxazepin-5-one] | – | – | 7 nM | 81 nM
7 | CCN1CCN(Cc2ccc(-c3cc4c(-c5cccc(N6CCOc7cc(C8CC8)ccc7C6=O)c5CO)ncnc4[nH]3)cc2)CC1 [Example B-7, 8-cyclopropyl-4-[3-[6-[4-[(4-ethylpiperazin-1-yl)methyl]phenyl]-7H-pyrrolo[2,3-d]pyrimidin-4-yl]-2-(hydroxymethyl)phenyl]-2,3-dihydro-1,4-benzoxazepin-5-one] | 6 nM | 52 nM | – | –
8 | CN1CCN(Cc2ccc(-c3cc4c(-c5cccc(-n6ncc7cc(C8CC8)ccc7c6=O)c5CO)ncnc4[nH]3)cc2)CC1 [Example B-10, 6-cyclopropyl-2-[2-(hydroxymethyl)-3-[6-[4-[(4-methylpiperazin-1-yl)methyl]phenyl]-7H-pyrrolo[2,3-d]pyrimidin-4-yl]phenyl]phthalazin-1-one] | 2 nM | 20 nM | – | –
9 | CN1CCN(Cc2ccc(-c3cc4c(-c5cccc(N6CCOc7cc(C8CC8)ccc7C6=O)c5CO)ccnc4[nH]3)cc2)CC1 [Example B-13, 8-cyclopropyl-4-[2-(hydroxymethyl)-3-[2-[4-[(4-methylpiperazin-1-yl)methyl]phenyl]-1H-pyrrolo[2,3-b]pyridin-4-yl]phenyl]-2,3-dihydro-1,4-benzoxazepin-5-one] | 3 nM | 9 nM | – | –
10 | N#CC1CCN(Cc2ccc(-c3cc4c(-c5cccc(N6CCOc7cc(C8CC8)ccc7C6=O)c5CO)ncnc4[nH]3)cc2)CC1 [Example B-14, 1-[[4-[4-[3-(8-cyclopropyl-5-oxo-2,3-dihydro-1,4-benzoxazepin-4-yl)-2-(hydroxymethyl)phenyl]-7H-pyrrolo[2,3-d]pyrimidin-6-yl]phenyl]methyl]piperidine-4-carbonitrile] | 7 nM | 96 nM | – | –
11 | CCN1CCN(Cc2ccc(-c3cc4c(-c5cccc(N6CCOc7cc(C8CC8)ccc7C6=O)c5CO)ccnc4[nH]3)cc2)CC1 [Example B-16, 8-cyclopropyl-4-[3-[2-[4-[(4-ethylpiperazin-1-yl)methyl]phenyl]-1H-pyrrolo[2,3-b]pyridin-4-yl]-2-(hydroxymethyl)phenyl]-2,3-dihydro-1,4-benzoxazepin-5-one] | 4 nM | 17 nM | – | –
12 | CC1(O)CN(Cc2ccc(-c3cc4c(-c5cccc(N6CCOc7cc(C8CC8)ccc7C6=O)c5CO)ccnc4[nH]3)cc2)C1 [Example B-17] | 6 nM | 74 nM | – | –
13 | CN1CCN(Cc2ccc(-c3cc4c(-c5cccc(N6CCOc7cc(C8CC8)ccc7C6=O)c5CO)ccnc4[nH]3)cn2)CC1 [Example B-20, 8-cyclopropyl-4-[2-(hydroxymethyl)-3-[2-[6-[(4-methylpiperazin-1-yl)methyl]-3-pyridyl]-1H-pyrrolo[2,3-b]pyridin-4-yl]phenyl]-2,3-dihydro-1,4-benzoxazepin-5-one] | 7 nM | 67 nM | – | –
14 | Cc1c(-c2ncnc3[nH]c(-c4ccc(CN5CCC(O)CC5)cc4)cc23)cccc1N1CCc2cc(C3CC3)ccc2C1=O [Example B-22, 6-cyclopropyl-2-[3-[6-[4-[(4-hydroxy-1-piperidyl)methyl]phenyl]-7H-pyrrolo[2,3-d]pyrimidin-4-yl]-2-methyl-phenyl]-3,4-dihydroisoquinolin-1-one] | 32.5 nM | 137 nM | – | –

The next lines start with results.

Row | IC50 [1, 2] | IC50 (mouse splenocytes; [3]) | SMILES | IC50 [1] | IC50 (mouse splenocytes; Mus musculus, read-out: Mouse spleenocyte IC50 (nM))
15 | 5 nM | 9 nM | CN1CCN(c2ccc(-c3cc4c(-c5cccc(-n6ccc7cc(C8CC8)ccc7c6=O)c5CO)ncnc4[nH]3)cc2)CC1 [Example C-1, 6-cyclopropyl-2-[2-(hydroxymethyl)-3-[6-[4-(4-methylpiperazin-1-yl)phenyl]-7H-pyrrolo[2,3-d]pyrimidin-4-yl]phenyl]isoquinolin-1-one] | – | –
16 | 12 nM | 36 nM | CN1CCN(c2ccc(-c3cc4c(-c5cccc(N6CCOc7cc(C8CC8)ccc7C6=O)c5CO)ncnc4[nH]3)cc2)CC1 [Example C-2, 8-cyclopropyl-4-[2-(hydroxymethyl)-3-[6-[4-(4-methylpiperazin-1-yl)phenyl]-7H-pyrrolo[2,3-d]pyrimidin-4-yl]phenyl]-2,3-dihydro-1,4-benzoxazepin-5-one] | – | –
17 | – | 76 nM | CCN1CC(n2cc(-c3cc4c(-c5cccc(N6CCOc7cc(C8CC8)ccc7C6=O)c5CO)ccnc4[nH]3)cn2)C1 [Example D-10, 8-cyclopropyl-4-[3-[2-[1-(1-ethylazetidin-3-yl)pyrazol-4-yl]-1H-pyrrolo[2,3-b]pyridin-4-yl]-2-(hydroxymethyl)phenyl]-2,3-dihydro-1,4-benzoxazepin-5-one] | – | –
18 | 1 nM | – | O=C(N1CC=C(c2cc3c(-c4cccc(N5CCOc6cc(C7CC7)cc(F)c6C5=O)c4CO)ccnc3[nH]2)CC1)N1CCC1 [Example P-13, 4-[3-[2-[1-(azetidine-1-carbonyl)-3,6-dihydro-2H-pyridin-4-yl]-1H-pyrrolo[2,3-b]pyridin-4-yl]-2-(hydroxymethyl)phenyl]-8-cyclopropyl-6-fluoro-2,3-dihydro-1,4-benzoxazepin-5-one] | – | –
19 | – | 9 nM | O=C1c2c(F)cc(C3CC3)cc2OCCN1c1cc(F)cc(-c2ccnc3[nH]c(C4=CCN(C5COC5)CC4)cc23)c1CO [Example P-16, 8-cyclopropyl-6-fluoro-4-[5-fluoro-2-(hydroxymethyl)-3-[2-[1-(oxetan-3-yl)-3,6-dihydro-2H-pyridin-4-yl]-1H-pyrrolo[2,3-b]pyridin-4-yl]phenyl]-2,3-dihydro-1,4-benzoxazepin-5-one] | – | –
20 | 618 nM | – | CS(=O)(=O)N1CC=C(c2cc3c(-c4ccnc(N5CCOc6cc(C7CC7)cc(F)c6C5=O)c4CO)ccnc3[nH]2)CC1 [Example P-25, 8-cyclopropyl-6-fluoro-4-[3-(hydroxymethyl)-4-[2-(1-methylsulfonyl-3,6-dihydro-2H-pyridin-4-yl)-1H-pyrrolo[2,3-b]pyridin-4-yl]-2-pyridyl]-2,3-dihydro-1,4-benzoxazepin-5-one] | – | –
21 | 2.9 nM | – | O=C1c2c(F)cc(C3CC3)cc2OCCN1c1cccc(-c2ccnc3[nH]c(-c4ccc(OCCN5CCOCC5)cn4)cc23)c1CO [Example Q-1, 8-cyclopropyl-6-fluoro-4-[2-(hydroxymethyl)-3-[2-[5-(2-morpholinoethoxy)-2-pyridyl]-1H-pyrrolo[2,3-b]pyridin-4-yl]phenyl]-2,3-dihydro-1,4-benzoxazepin-5-one] | – | –
22 | 3.1 nM | – | O=C1c2c(F)cc(C3CC3)cc2OCCN1c1cccc(-c2ccnc3[nH]c(-c4ccc(OCCN5CCC5)cn4)cc23)c1CO [Example Q-2, 4-[3-[2-[5-[2-(azetidin-1-yl)ethoxy]-2-pyridyl]-1H-pyrrolo[2,3-b]pyridin-4-yl]-2-(hydroxymethyl)phenyl]-8-cyclopropyl-6-fluoro-2,3-dihydro-1,4-benzoxazepin-5-one] | – | –
23 | 3 nM | – | CN1CCN(c2ccc(-c3cc4c(-c5cccc(N6CCOc7cc(C8CC8)ccc7C6=O)c5CO)ccnc4[nH]3)nc2)CC1 [Example S-3, 8-cyclopropyl-4-[2-(hydroxymethyl)-3-[2-[5-(4-methylpiperazin-1-yl)-2-pyridyl]-1H-pyrrolo[2,3-b]pyridin-4-yl]phenyl]-2,3-dihydro-1,4-benzoxazepin-5-one] | – | –
